Assay results reported in PMC6155732, “Development of a UPLC-TQ/MS Approach for the Determination of Eleven Bioactive Components in Haizao Yuhu Decoction Plus-Minus Haizao and Gancao Drug Combination after Oral Administration in a Rat Model of Hypothyroidism” (Molecules : A Journal of Synthetic Chemistry and Natural …, 2016).

Legend:
[1] = Pharmacokinetics of compounds 1–11 in rat plasma (UPLC-TQ/MS) after oral administration of HYD and plus-minus Haizao/Gancao decoctions; format: in vivo, Wistar rats (PTU-induced model of hypothyroidism); conditions: Wistar, model rats, n = 6, mean ± S.D.
Description: Plasma samples (200 μL) and IS solution (50 μL, 1215 ng/mL for diphenhydramine, 476 ng/mL for chloromycetin) were added to an Eppendorf tube, and this mixture was extracted with methanol (550 μL) by shaking on a vortex-mixer for 2 min, and centrifuged for 10 min at 13,000 rpm. The contents were evaporated to dryness in a rotary evaporator at 37 °C. The residue was reconstituted in methanol (100 μL) and centrifuged (13,000 rpm for 10 min). The supernatant was transferred to an autosample vial and an aliquot of 5 μL was injected onto the UPLC-MS/MS system for analysis.
The developed and validated method was used to evaluate the pharmacokinetics of the eleven compounds after oral administration of different fractions in […] (Figure 3). […] The pharmacokinetic parameters including half-life (T1/2), maximum plasma concentration (Cmax), time to reach the maximum concentration (Tmax), and area under concentration–time curve (AUC0~t) were calculated by a non-compartment model and are shown in Table 6.
A considerable increase in thyroid stimulating hormone (TSH) and decrease in triiodothyronine (T3) and tetraiodothyronine (T4) in serum are considered to be markers of successful hypothyroid rat model preparation. PTU is the classic drug used to replicate hypothyroidism in rat models. It is generally thought that PTU can decrease the level of thyroid hormone in a hypothyroid rat model by inhibiting the activity of TPO [31, 32]. Model Wistar rats were administered PTU intragastrically at a dose of 10 mg/kg (QD) for 2 weeks to establish hypothyroidism. Serum from model rats was collected on the last day of PTU administration and the T3, T4 and TSH levels were determined using test kits. Wistar rats with a considerable increase in […] and a decrease in serum T3 and T4 were considered to have hypothyroidism and were selected for subsequent pharmacokinetic studies.
For the pharmacokinetic studies, model Wistar rats were divided into six groups (n = 6 per group). Rats in the model HYD groups were administered HYD at a dose of 12 mL/kg intragastrically. In the model HYD-GC groups, HYD-GC (11 mL/kg) was administered. In the model HYD-HZ groups, HYD-HZ (11 mL/kg) was administered. In the model HYD-GC-HZ groups, HYD-GC-HZ (10 mL/kg) was administered. In the model GH groups, GH (2 mL/kg) was administered. In the model GC groups, GC (1 mL/kg) was administered. Blood samples were collected at specific time points before (0 min) and after oral administration (5, 10, 20, 40, 60, 120, 240, 480, 720, 1440 min). A total of 360 blood samples were collected. All blood samples were immediately centrifuged at 2500 rpm for 10 min to obtain plasma, which was labeled and frozen at −80 °C until analysis. Blank plasma was obtained from the rats without oral administration and was used to investigate the assay development and validation.
To determine the pharmacokinetic parameters of compounds 1–11 in different groups, concentration–time data were analyzed by DAS 3.2 software (Mathematical Pharmacology Professional Committee of China, Shanghai, China, 2011). Data were expressed as the mean and standard deviation (S.D.) with triplicate measurements. The identification of significant differences between different groups was carried out using the Student’s t-test. A p value < 0.05 was considered statistically significant.

CYP2C9 = system: CYP2C9; design: method as in PMID 21462897; conditions: cited from earlier work
CYP2C19 = system: CYP2C19; design: method as in PMID 21462897; conditions: cited from earlier work
CYP3A4 = system: CYP3A4; design: method as in PMID 21462897; conditions: cited from earlier work
[2] = 10 mL/kg, group HYD-GH (HYD minus Gancao and Haizao; HYD-GC-HZ), 10 mL/kg intragastrically
[3] = 11 mL/kg, group HYD-GC (HYD minus Gancao), 11 mL/kg intragastrically
[4] = 11 mL/kg, group HYD-HZ (HYD minus Haizao), 11 mL/kg intragastrically
[5] = 12 mL/kg, group HYD, 12 mL/kg intragastrically
[6] = 1 mL/kg, group GC (extract of Gancao), 1 mL/kg intragastrically
[7] = 2 mL/kg, group GH (extract of Gancao and Haizao), 2 mL/kg intragastrically

AUC(0-t) [1, 2]	Cmax [1, 2]	Tmax [1, 2]	half-life [1, 2]	AUC(0-t) [1, 3]	Cmax [1, 3]	Tmax [1, 3]	half-life [1, 3]	AUC(0-t) [1, 4]	Cmax [1, 4]	Tmax [1, 4]	half-life [1, 4]	AUC(0-t) [1, 5]	Cmax [1, 5]	Tmax [1, 5]	half-life [1, 5]	AUC(0-t) [1, 6]	Cmax [1, 6]	Tmax [1, 6]	half-life [1, 6]	Compound	further results
786 ± 369 ng·h/mL	125 ± 35.6 ng/mL	0.11 ± 0.04 h	9.6 ± 10.6 h	470 ± 130 ng·h/mL	183 ± 47 ng/mL	0.61 ± 0.14 h	1.17 ± 0.1 h	649 ± 132 ng·h/mL	192 ± 54.5 ng/mL	0.81 ± 0.34 h	1.92 ± 1.75 h	819 ± 25.7 ng·h/mL	227 ± 57.8 ng/mL	0.33 ± 0.21 h	1.56 ± 1.02 h					COc1c2ccoc2cc2oc(=O)ccc12 [Compound 8, bergapten]	
								2150 ± 629 ng·h/mL	276 ± 66.5 ng/mL	0.79 ± 1.58 h	3.94 ± 0.59 h		358 ± 91.9 ng/mL	2.75 ± 4.07 h	4.05 ± 0.77 h	1000 ± 946 ng·h/mL	220 ± 47.4 ng/mL	2.5 ± 1.73 h	2.41 ± 1.57 h	O=C1C[C@@H](c2ccc(O)cc2)Oc2cc(O)ccc21 [Compound 6, liquiritigenin]	AUC(0-t) [1, 7]: 681 ± 771 ng·h/mL; Cmax [1, 7]: 211 ± 70.3 ng/mL; Tmax [1, 7]: 1.5 ± 1.23 h; half-life [1, 7]: 4.12 ± 3.73 h
565 ± 352 ng·h/mL	424 ± 188 ng/mL	0.15 ± 0.1 h	1.23 ± 0.15 h	561 ± 278 ng·h/mL	271 ± 75.4 ng/mL	0.19 ± 0.07 h	1.12 ± 0.28 h	1060 ± 244 ng·h/mL	463 ± 194 ng/mL	0.5 ± 0.18 h	2.59 ± 2.02 h	912 ± 198 ng·h/mL	612 ± 200 ng/mL	0.17 ± 0.09 h	11.3 ± 4.86 h					C[C@@H]1O[C@@H](O[C@H]2[C@H](Oc3cc(O)c4c(c3)O[C@H](c3ccc(O)cc3)CC4=O)O[C@H](CO)[C@@H](O)[C@@H]2O)[C@H](O)[C@H](O)[C@H]1O [Compound 2, naringin]	
								987 ± 567 ng·h/mL	494 ± 165 ng/mL	0.31 ± 0.07 h	3.66 ± 3.3 h	1760 ± 287 ng·h/mL	1600 ± 595 ng/mL	0.19 ± 0.11 h	9.23 ± 5.85 h	229 ± 119 ng·h/mL	147 ± 37.7 ng/mL	0.67 h	0.99 ± 0.34 h	O=C1C[C@@H](c2ccc(O[C@@H]3O[C@H](CO)[C@@H](O)[C@H](O)[C@H]3O)cc2)Oc2cc(O)ccc21 [Compound 1, liquiritin]	AUC(0-t) [1, 7]: 2510 ± 814 ng·h/mL; Cmax [1, 7]: 254 ± 122 ng/mL; Tmax [1, 7]: 0.17 h; half-life [1, 7]: 1.34 ± 1.48 h

The next lines start with the compound.

Compound	AUC(0-t) [1, 2]	Cmax [1, 2]	Tmax [1, 2]	half-life [1, 2]	AUC(0-t) [1, 3]	Cmax [1, 3]	Tmax [1, 3]	half-life [1, 3]	AUC(0-t) [1, 4]	Cmax [1, 4]	Tmax [1, 4]	half-life [1, 4]	AUC(0-t) [1, 5]	Cmax [1, 5]	Tmax [1, 5]	half-life [1, 5]	AUC(0-t) [1, 6]	Cmax [1, 6]	Tmax [1, 6]	half-life [1, 6]	further results
COc1ccc2ccc(=O)oc2c1CC=C(C)C [Compound 10, osthole]	98.5 ± 41 ng·h/mL	69.2 ± 25.6 ng/mL	0.53 ± 0.31 h	0.68 ± 0.49 h	205 ± 94.7 ng·h/mL	101 ± 31.9 ng/mL	0.39 ± 0.14 h	1.54 ± 0.51 h	295 ± 117 ng·h/mL	295 ± 117 ng/mL	0.61 ± 0.25 h	1.45 ± 1.11 h	748 ± 225 ng·h/mL	458 ± 184 ng/mL	0.61 ± 0.14 h	1.25 ± 0.03 h					
CC1(C)[C@@H](O[C@H]2O[C@H](C(=O)O)[C@@H](O)[C@H](O)[C@H]2O[C@@H]2O[C@H](C(=O)O)[C@@H](O)[C@H](O)[C@H]2O)CC[C@]2(C)[C@H]3C(=O)C=C4[C@@H]5C[C@@](C)(C(=O)O)CC[C@]5(C)CC[C@@]4(C)[C@]3(C)CC[C@@H]12 [Compound 7, glycyrrhizic acid]									587 ± 261 ng·h/mL	587 ± 261 ng/mL	0.67 ± 0.42 h	1.84 ± 1.82 h	1690 ± 639 ng·h/mL	1370 ± 712 ng/mL	0.292 ± 0.1 h	1.58 ± 1.01 h	1760 ± 1430 ng·h/mL	607 ± 137 ng/mL	1.25 ± 0.5 h	4.47 ± 2.63 h	AUC(0-t) [1, 7]: 3600 ± 1840 ng·h/mL; Cmax [1, 7]: 1350 ± 322 ng/mL; Tmax [1, 7]: 0.56 ± 0.4 h; half-life [1, 7]: 9.94 ± 8.89 h
CC1(C)[C@@H](O)CC[C@]2(C)[C@H]3C(=O)C=C4[C@@H]5C[C@@](C)(C(=O)O)CC[C@]5(C)CC[C@@]4(C)[C@]3(C)CC[C@@H]12 [Compound 11, glycyrrhetinic acid]									12700 ng·h/mL	756 ± 58.1 ng/mL	12 h	1.99 ± 0.03 h	9990 ± 1660 ng·h/mL	504 ± 101 ng/mL	9.33 ± 2.07 h	3.01 ± 2.35 h	10500 ng·h/mL	776 ± 184 ng/mL	10 ± 2.31 h	4.66 ± 5.33 h	AUC(0-t) [1, 7]: 22800 ng·h/mL; Cmax [1, 7]: 1250 ± 210 ng/mL; Tmax [1, 7]: 12.7 ± 5.89 h; half-life [1, 7]: 1.93 ± 0.04 h; inhibitory potencies on CYP2C9 enzyme activity (CYP2C9): up to 50%; inhibitory potencies on CYP2C19 enzyme activity (CYP2C19): up to 50%; inhibitory potencies on CYP3A4 enzyme activity (CYP3A4): up to 50%
COc1ccc(-c2cc(=O)c3c(OC)c(OC)c(OC)c(OC)c3o2)cc1OC [Compound 9, nobiletin]	1180 ± 539 ng·h/mL	311 ± 126 ng/mL	0.46 ± 0.37 h	3.26 ± 3.53 h	2010 ± 1020 ng·h/mL	501 ± 183 ng/mL	0.89 ± 0.27 h	4.53 ± 1.89 h	2290 ± 55.5 ng·h/mL	322 ± 88.2 ng/mL	0.19 ± 0.07 h	16.2 ± 7.06 h	2870 ± 285 ng·h/mL	1000 ± 178 ng/mL	0.67 h	6.03 ± 1.95 h					
